{"source": "patent US9662347B2", "about": "“Method for inhibiting the induction of cell death by inhibiting the synthesis or secretion of age-albumin in cells of the mononuclear phagocyte system” (Gachon University of Industry-Academic Cooperation …, priority 2010, dated 2017)", "molecules": {"B1": {"name": "HMGB1: high motility group protein B1, excites microglial cells upon stroke (protein, UniProt P09429 1-215, looked up)", "High mobility group protein B1": "MGKGDPKKPRGKMSSYAFFVQTCREEHKKKHPDASVNFSEFSKKCSERWKTMSAKEKGKFEDMAKADKARYEREMKTYIPPKGETKKKFKDPNAPKRPPSAFFLFCSEYRPKIKGEHPGLSIGDVAKKLGEMWNNTAADDKQPYEKKAAKLKEKYEKDIAAYRAKGKPDAAKKGVVKAEKSKKKKEEEEDEEDEEDEEEEEDEEDEDEEEDDDDE"}}, "key": {"[1]": {"tested_on": "α-synuclein, TNF-α and AGE-albumin in human microglial cells", "format": "cell-based", "conditions": "for expression level of α-synuclein or TNF-α in human microglial cells: PCR and immunoblotting; for expression level of AGE-albumin: irrespective of rotenone treatment", "method": "Human microglial cells were cultured at 37° C. in DMEM (Gibco, 10% FBS (Gibco), 0.1% gentamicin (Gibco), a high concentration of glucose) at 37° C. in a 5% CO2 incubator. Then, the microglial cells were exposed to rotenone (Sigma, 1 nM), a causative agent of Parkinson's disease, for 10 days or to 6-hydroxydopamine (6-OHDA) for 24 hrs to prepare a cell model of Parkinson's disease.\nα-Synuclein or TNF-α is present at a high level in the brain tissue of Parkinson's disease patients."}, "[2]": {"tested_on": "AGE-albumin, RAGE, and Bax in mouse brain tissues", "experiment": "Rotenone mouse model, fluoroimmunostaining of AGE-albumin, RAGE and Bax in brain tissues", "format": "in vivo", "conditions": "versus rotenone alone; one week and one month", "quoted_text": "(§2) The animal models of Parkinson's disease were anaesthetized with ketamine (0.75 mg/kg body weight) and rompun (0.2 mg/kg body weight) prior to surgical procedures. For in vivo treatments, phosphate buffered saline (PBS) and sRAGE (10 ng/μL) were dissolved at a concentration of 1 mM in sterile water and kept at 4° C. until use. The head was fixed on a stereotaxic instrument before a midline incision of the scalp skin was made. The skull was pierced with a biological electric drill at the bregma (posteriorly, 0.3 mm; laterally, 2 mm) and the needle (gauge 26) on a 10-μL Hamilton syringe was lowered vertically until it reached the target area (depth, 2.5 mm). Three microliters of sRAGE were injected slowly at the rate of 1 μL per minute with an automatic microinjector. Thereafter, the syringe was removed slowly and surgical wounds were sutured with wound clips followed by topical treatment with antibiotics. For control, PBS was injected into the entorhinal cortex of normal mice.\nMost mice were bred for one week and one month after injection of sRAGE. During the breeding, oral administration of rotenone still continued. Afterwards, all mice were re-anaesthetized in the same manner, and perfused transcardially with 100˜200 mL of heparinized saline at 18° C. followed by 400 mL of 4% paraformaldehyde-lysine periodate in 0.1 M sodium phosphate buffer (pH, 7.4). […]"}, "[3]": {"tested_on": "rotenone-mediated neuronal cell death", "experiment": "Rotenone mouse model, number of neuronal cells in brain tissues (cresyl violet staining)", "format": "in vivo", "conditions": "rotenone mice; for level of cell death in mouse brain tissues: substance injected into brain, one week and one month, compared to PBS", "quoted_text": "CBL57/bL6 mice, each weighing 20-25 g, were used as experimental animals. The mice were maintained on a 12-h light-dark cycle, allowed to have access to food and water ad libitum, and acclimated for at least 1 week prior to usage. All animal experiments were approved by the Institute Animal Care and Use Committee, and were conducted humanely.\nas §2\nMost mice were bred for one week and one month after injection of sRAGE. During the breeding, oral administration of rotenone still continued. Afterwards, all mice were re-anaesthetized in the same manner, and perfused transcardially with 100˜200 mL of heparinized saline at 18° C. followed by 400 mL of 4% paraformaldehyde-lysine periodate in 0.1 M sodium phosphate buffer (pH, 7.4). The brains were removed, placed in the same fixative for 4 hrs at 4° C., and then transferred into ice-cold 0.1 M phosphate-buffered saline (PBS) containing 20% sucrose. […]\nThe relative levels of neurons in mouse brain tissues were evaluated by cresyl violet staining after PBS, rotenone, or rotenone/sRAGE administration for one week and one month before microscopy."}, "[4]": {"tested_on": "AGE-albumin in human microglial cells", "experiment": "AGE-albumin in human microglial cell model of stroke (oxygen and glucose deprivation)", "format": "cell-based", "conditions": "for expression level of AGE-albumin in stroke model cells: 0, 50, 200, 500, 2000 ng/mL, hypoxic and glucose-deprived; for amount / expression level of AGE-albumin in stroke model cells (immunoblot): 0˜1000 μM H2O2, ascorbic acid irrespective of hypoxia and glucose deprivation", "method": "Human microglial cells were cultured at 37° C. in DMEM (Gibco, 10% FBS (Gibco), 0.1% gentamicin (Gibco), a high concentration of glucose) at 37° C. in a 5% CO2 incubator. Then, the microglial cells were exposed to glucose-free DMEM for 1 hr within a hypoxic (5% CO2 and 95% N2) chamber (Billups-Rothenberg, Del Mar, Calif.) to prepare a cell model of stroke.\nHuman microglial cell models of stroke were treated with HMGB1, which is known to secrete most abundantly upon stroke to excite microglial cells. Expression levels of AGE-albumin in the human microglial cell model of stroke were quantitated at various concentrations (0, 50, 200, 500, 2000 ng/mL) of HMGB1 using immunohistochemistry (IHC), ELISA, and immunoblotting.\nA Human microglial cell model of stroke was exposed to various concentrations (0, 50, 200, 500, 2000 ng/mL) of the HMGB1 inhibitor glycyrrhizic acid, and quantitatively analyzed for AGE-albumin using ELISA and immunoblotting."}, "[5]": {"tested_on": "AGE-albumin in human microglial cells (HMO6)", "experiment": "Synthesis and secretion of AGE-albumin in human microglial cells (co-immunoprecipitation, ELISA, immunoblot)", "format": "cell-based", "conditions": "for amount / expression level of AGE-albumin (immunoblot): 0˜1000 μM H2O2, ascorbic acid irrespective of Aβ1-42 treatment", "method": "(§1) For in vitro studies, the immortalized human microglial cell line HMO6 was used. HMO6 cells were grown in Dulbecco's modified Eagle's medium (DMEM, Gibco) containing a high glucose concentration, supplemented with 10% heat-inactivated fetal bovine serum (FBS, Gibco) and […] gentamycin (Sigma-Aldrich). These cells were maintained at 37° C. under 5% CO2. HMO6 cells were exposed to Aβ1-42 (Sigma-Aldrich) at concentrations from 0 to 400 nM. HMO6 cells were then harvested 6 hrs after Aβ1-42 treatment for further analysis.\nWhole human microglial cell lysates prepared before and after Aβ 1-42 treatment were subjected to immunoblotting analysis. In this regard, whole cell lysates from human microglial cells before and after treatment with 0˜400 nM Aβ 1-42 were prepared with a RIPA (radioimmunoprecipitation assay) buffer containing 1 M Tris (pH 7.5), 5 M NaCl, 10% NP-40, 10% deoxycholate and a protease inhibitor cocktail (Calbiochem). All cell lysates (1 mg protein) were incubated overnight at 4° C. with 5 mg of anti-AGE (Abcam)-conjugated sepharose beads in […] of PBS. The sepharose beads were precipitated by centrifugation at 14,000 rpm for 5 min, and washed three times with 1 mL of washing buffer containing 50 mM Tris-Cl and 500 mM NaCl (pH 8.0). The IgG-bound antigen-antibody complex was resolved on a 4-12% polyacrylamide gel (Invitrogen), followed by immunoblot analysis with the respective antibodies (1:1000, Abcam).\nAfter removal of already synthesized albumin by use of an anti-albumin antibody, intracellular and extracellular (secreted into culture media) levels of AGE-albumin were measured using ELISA. For this, human microglial cells were treated with 0-400 nM Aβ1-42, after which the culture media (0.1 mg protein) were harvested. Separately, the cells were lyzed to prepare cell lysates (0.5 mg protein). […] Following the addition of HRP-conjugated anti-mouse secondary antibody (1:1000, Vector Laboratories) to each well, color was developed with TMB (3,3′,5,5′-tetramethylbenzidine), and reaction was stopped with an equal volume of 2 M H2SO4. Absorbance at 450 nm was read on an ELISA plate reader (VERSA Max, Molecular Devices).\nAβ1-42 is known to accumulate over a long period of time by oxidative stress."}, "[6]": {"tested_on": "AGE-albumin in human microglial cells and rat brain tissues", "experiment": "Distribution and density of AGE-albumin after Aβ1-42 treatment (immunostaining, confocal microscopy)", "format": "cell-based", "method": "as §1\nCells were grown on Lab-Tek II slide chambers (Nunc), rinsed with PBS, fixed in methanol for 15 min, and rinsed again with PBS. […] After washing the secondary antibodies with PBS three times at regular intervals of 10 min, coverslips were mounted onto glass slides using the Vectashield mounting medium (Vector Laboratories), and examined under a laser confocal fluorescence microscope (LSM-710, Carl Zeiss).\nImmunohistochemistry was conducted on murine brain tissues from normal or Alzheimer's disease rats, and human brain tissues from normal adults and Alzheimer's disease individuals [S. M. Ahn et al., PLoS ONE 3, e2829 (2008)]. […] After washing the secondary antibodies three times with PBS, coverslips were mounted onto glass slides using the Vectashield mounting medium (Vector Laboratories), and observed under a laser confocal fluorescence microscope (LSM-710, Carl Zeiss). […]"}, "[7]": {"tested_on": "AGE-albumin in mouse blood monocytes", "experiment": "AGE-albumin in mouse blood monocytes (immunostaining)", "format": "cell-based", "conditions": "compared to non-treated cells"}}, "data": [{"molecule": "NCCc1cc(O)c(O)cc1O", "note": "[6-hydroxydopamine]", "values": [{"measurement": "expression level of α-synuclein or TNF-α in human microglial cells", "setting": "[1]", "result": "increased"}]}, {"molecule": "CC(=O)OCC1=C(C(=O)O)N2C(=O)[C@@H](NC(=O)Cc3cccs3)[C@H]2SC1", "note": "[C-21, Cephalothin sodium]", "values": [{"measurement": "AGE, albumin, Iba1, AGE-albumin, RAGE, and Bax expression / positive cells in mouse brain tissues", "setting": "[2]", "result": "reduced"}, {"measurement": "level of cell death in mouse brain tissues", "setting": "[3]", "result": "significantly reduced level of cell death"}]}, {"molecule": "C=C(C)[C@H]1Cc2c(ccc3c2O[C@@H]2COc4cc(OC)c(OC)cc4[C@@H]2C3=O)O1", "note": "[rotenone]", "values": [{"measurement": "expression level of AGE-albumin in both cell lysate and cell culture medium", "setting": "[1]; 1 nM rotenone", "result": "increased"}, {"measurement": "expression level of α-synuclein or TNF-α in human microglial cells", "setting": "[1]", "result": "increased"}]}, {"molecule": "CC1(C)[C@@H](O[C@H]2O[C@H](C(=O)O)[C@@H](O)[C@H](O)[C@H]2O[C@@H]2O[C@H](C(=O)O)[C@@H](O)[C@H](O)[C@H]2O)CC[C@]2(C)[C@H]3C(=O)C=C4[C@@H]5C[C@@](C)(C(=O)O)CC[C@]5(C)CC[C@@]4(C)[C@]3(C)CC[C@@H]12", "note": "[glycyrrhizic acid]", "values": [{"measurement": "expression level of AGE-albumin in stroke model cells", "setting": "[4]", "result": "significantly decreased with an increase in the concentration"}]}, {"molecule": "C=C1[C@@H](C)[C@H]2[C@H](Cc3ccccc3)NC(=O)[C@]23[C@H](OC(C)=O)/C=C/[C@@](C)(O)C(=O)[C@@H](C)C/C=C/[C@H]3[C@@H]1O", "note": "[cytochalasin D]", "values": [{"measurement": "expression level of AGE-albumin", "setting": "[1]", "result": "drastically reduced"}]}, {"molecule": "N[C@@H](C(=O)N[C@@H]1C(=O)N2C(C(=O)O)=C(Cl)CS[C@H]12)c1ccccc1", "note": "[C-20, Cefaclor]", "values": [{"measurement": "AGE, albumin, Iba1, AGE-albumin, RAGE, and Bax expression / positive cells in mouse brain tissues", "setting": "[2]", "result": "reduced"}, {"measurement": "level of cell death in mouse brain tissues", "setting": "[3]", "result": "significantly reduced level of cell death"}, {"measurement": "number of neurons in the injected region versus the non-injected region", "setting": "[3]; predominant recovery in the substantia nigra", "result": "higher number of neurons"}]}, {"molecule": "OO", "note": "[hydrogen peroxide]", "values": [{"measurement": "amounts of both α-synuclein and AGE-albumin", "setting": "[1]; sequentially exposed to rotenone and H2O2 0˜1000 μM", "result": "increased in a concentration-dependent manner"}, {"measurement": "amount / expression level of AGE-albumin (immunoblot)", "setting": "[5]", "result": "increased in a concentration-dependent manner"}, {"measurement": "amount / expression level of AGE-albumin in stroke model cells (immunoblot)", "setting": "[4]", "result": "increased in a concentration-dependent manner"}]}, {"molecule": "O=C1O[C@H]([C@@H](O)CO)C(O)=C1O", "note": "[ascorbic acid]", "values": [{"measurement": "expression level of AGE-albumin", "setting": "[1]", "result": "drastically reduced"}, {"measurement": "amount / expression level of AGE-albumin (immunoblot)", "setting": "[5]", "result": "drastically reduced"}, {"measurement": "amount / expression level of AGE-albumin in stroke model cells (immunoblot)", "setting": "[4]", "result": "drastically reduced"}]}, {"molecule": "Aβ1-42: amyloid beta 1-42 (Sigma-Aldrich), activator of microglial cells", "values": [{"measurement": "expression level of AGE-albumin in human microglial cells (co-immunoprecipitation)", "setting": "[5]; 0˜400 nM Aβ1-42", "result": "increased with an increase in the concentration"}, {"measurement": "level of AGE-albumin in human microglial cell lysates (ELISA)", "setting": "[5]; compared to non-treated lysates", "result": "significant increase"}, {"measurement": "expression level of AGE-albumin (immunostaining)", "setting": "[6]; human microglial cells and rat brain tissue (cerebral cortex) after exposure to Aβ1-42", "result": "remarkable elevation"}, {"measurement": "densities of AGE-albumin", "setting": "[6]; microglial cells and rat brain tissues after versus before Aβ1-42 treatment", "result": "remarkably higher"}, {"measurement": "expression level of AGE-albumin in mouse blood monocytes", "setting": "[7]", "result": "higher expression level"}]}, {"molecule": "B1", "values": [{"measurement": "expression level of AGE-albumin in stroke model cells", "setting": "[4]", "result": "significantly increased with an increase in the concentration"}]}]}
